{
  "source": "patent US8431617B2",
  "about": "“Use of resveratrol for the preparation of a medicament useful for the treatment of influenza virus infections” (Sigma-Tau Industrie Farmaceutiche Riunite S.p.A., priority 2002, dated 2013)",
  "key": {"[1]": {"tested_on": "MDCK cells", "experiment": "Apoptosis in MDCK cells by FACS after labelling with propidium iodide", "format": "cell-based, dog", "settings": "for apoptosis: antiviral doses of the drug", "method": "As regards the analysis of apoptosis. MDCK cells were infected with the virus PR8. After viral adsorption, the cells were treated with resveratrol at various concentrations (5, 10, 15 and 20 μg/ml). Twenty-four hours after infection, the cells were detached using a 0.25% trypsin solution and then centrifuged at 1,200 rpm for 5 min, The precipitate thus obtained was analysed by means of the FACS technique after labelling with propidium iodide.\nFor the purposes of assessing whether the induction of cell death by apoptosis was involved in the antiviral effect of reservatrol, MDCK cells were infected or not with the virus and treated with the substance at the various concentrations. Cell death by apoptosis was evaluated by FACS after labelling with propidium iodide. […] The infection in itself induced apoptosis in 12% of infected cells. Although the addition of increasing doses caused an increase in the mortality, no significant difference was observed between infected cells and uninfected cells treated with antiviral doses of the drug (35 and 37% apoptosis, respectively)."}, "[2]": {"tested_on": "MDCK cells", "experiment": "Toxicity of resveratrol on confluent monolayers of uninfected MDCK cells (cell count, Trypan Blue viability)", "experimental": "The cells were cultured in T-25 vials or in 6- and 24-well Libno plates in RPMI culture medium added with L-glutamine, penicillin-streptomycin and 10% foetal calf serum (FCS) and maintained at 37° C. in a 5% CO2 atmosphere. The confluent cell monolayers were detached with a 0.25% trypsin solution, centrifuged and reseeded in fresh medium. The cell count was done using a haemocytometer and cell viability was determined by means of exclusion with Trypan Blue viability staining (0.02%).\nFor the purposes of determining the possible degree of toxicity on the MDCK cells, the latter were treated with resveratrol after the confluence of the monolayer, at various concentrations (5, 10, 15, 20 and 40 μg/ml)."}, "[3]": {"tested_on": "influenza virus PR8 viral proteins (H0-H1, H2, M, NP, P)", "experiment": "Synthesis of viral proteins in infected MDCK cells by Western blotting", "format": "cell-based, influenza virus A/PR8/34, subtype H1N1", "settings": "15 and 20 μg/ml", "method": "Viral proteins were analysed by Western blotting. At different times after viral infection, the cells were lysed using special lysis buffers. Equal quantities of proteins were then loaded onto polyacrylamide gel in SDS. After electrophoresis, the proteins were transferred onto a nitrocellulose membrane and treated with anti-influenza polyclonal antibody. After incubation and suitable washings, the filters were treated with a second antibody conjugated to peroxidase and the viral proteins were highlighted by means of the chemiluminescence technique (ECL), using a peroxidase substrate (luminol) which, on reacting with the enzyme, emits a light and makes an impression on the autoradiography plate. The cells were treated with resveratrol at various concentrations (5, 10, 15 and 20 μg/ml). To allow better imaging of the viral proteins, the electrophoresis run was done using a 10% polyacrylamide gel (FIG. 7A) and gradient gel (FIG. 7B)."}, "[4]": {"tested_on": "mRNAs for the viral proteins HA and M", "experiment": "PCR for messenger RNAs of late viral proteins in infected MDCK cells", "format": "cell-based, influenza virus A/PR8/34, subtype H1N1"}, "[5]": {"tested_on": "influenza virus A/PR8/34, subtype H1N1 (virus PR8)", "experiment": "Replication of influenza virus PR8 in MDCK cells, virus released in supernatant titrated as haemagglutinating units", "format": "cell-based"}, "[6]": {"tested_on": "viral proteins NP and M", "experiment": "Localisation of proteins NP and M in infected MDCK cells by immunofluorescence", "format": "cell-based, influenza virus A/PR8/34, subtype H1N1", "settings": "20 μg/ml", "method": "Viral replication was also assessed with analysis of the occurrence of viral antigens on the surface of the infected cell by means of immunofluorescence. Analysis of viral proteins by immunofluorescence was done with a fluorescence microscope using a filter emitting in the green (FITC) (lens 100×). MDCK cells, cultured on cover slides for 24 h were infected and, 18 h after infection, were fixed with methanol-acetone 1:1 at 4° C. for 15 min. Later, the cells were washed twice in PBS and permeabilised with a 0.1% solution of PBS-TRITON for 5 min. Blockade of the aspecific sites was done with 1% milk dissolved in PBS for 30 min at ambient temperature. Later, specific monoclonal antibodies (mouse anti-influenza NP and mouse anti-influenza M) to viral proteins were added, diluted 1:50 in PBS for 30 min at ambient temperature. The primary antibody was detected with a secondary antibody conjugated to fluorescein (anti-mouse FITC, Sigma). […]"}, "[7]": {"tested_on": "influenza virus A/PR", "experiment": "Survival of mice infected intranasally with influenza virus A/PR", "format": "in vivo, Balb/c AnCrIBR mice", "settings": "1 mg/kg, intraperitoneal, daily for 7 days", "method": "Four-week-old female inbred Balb/c AnCrIBR mice were used. Resveratrol, dissolved in PBS, was administered to the animals via the intraperitoneal route at various times after infection with the influenza virus. The reservatrol concentrations were chosen so as to obtain a range of doses in the animals' blood similar to the effective range in vitro (10 to 20 μg/ml).\nThe mice were inoculated intranasally (i.n.) with a suspension containing the influenza virus A/PR at a multiplicity of infection of 2 HAU/mouse, after light anaesthesia with ether. On the basis of previous experimental data, the influenza virus at this multiplicity of infection produces haemorrhagic pneumonia that leads to the death of 80% of the animals by one week after infection. For the purposes of monitoring the infection trend, both virological and immunological parameters were monitored in addition to studying survival curves.\nThe efficacy of resveratrol was studied in an experimental influenza virus infection model in the mouse. In this model, intranasal inoculation of the virus causes severe haemorrhagic pneumonia which leads to the death of the animals within 7 to 10 days of infection. The experimental design envisages evaluation of the therapeutic efficacy of the study substance, as assessed on the basis of survival of the infected animals. […]"}, "[8]": {"tested_on": "MDCK cells", "experiment": "Assay of intracellular glutathione (GSH) in MDCK cells by HPLC", "format": "cell-based, dog", "method": "The glutathione assay has been performed as a result of the formation of S-carboxymethyl-derivatives of free thiols with iodoacetic acid followed by conversion of the NH2 terminal groups to 2,4-dinitrophenyl derivatives after the reaction of 1-fluoro-2,4-dinitrobenzene (Anal. Biochemn., 106, 55-62, 1980).\nThe MDCK cells were detached by means of the scraping technique. Later, the cells were centrifuged at 1,200 rpm for 5 minutes. The cells were washed twice in PBS and the precipitate, obtained after centrifuging, was resuspended in 200 μl of buffer. The cell lysates, obtained with repeated cycles of freezing and thawing, were deproteinised by means of precipitation in 5% metaphosphoric acid. After centrifuging at 22,300 g, the low-molecular-weight thiols present in the supernatant were derivatised with 10% iodoacetic acid v/v and neutralised with NaHCO3 in powder form. After 1 h of incubation in the dark a solution of 1.5% 1-chloro-2,4-dinitrobenzene v/v was added (1.5 ml/98.5 ml of absolute ethanol). […] The protein concentration was calculated using the Lowry method (Biol. Chem., 193, 265-75, 1951). […] The reducing reaction product is detected by the formation of stained compounds by reaction with the aromatic amino acids of the proteins. […]"}},
  "data": [
    {"substance": "3,4,5-trihydroxystilbene [resveratrol]", "values": [
      {"measurement": "apoptosis", "setting": "[1]; infected cells", "result": 35, "unit": "%"},
      {"measurement": "cell death by apoptosis", "setting": "[1]; uninfected cells, 5 μg/ml", "result": 8, "unit": "%"},
      {"measurement": "cell death by apoptosis", "setting": "[1]; uninfected cells, 20 μg/ml", "result": 32, "unit": "%"},
      {"measurement": "apoptosis", "setting": "[1]; uninfected cells", "result": 37, "unit": "%"},
      {"measurement": "toxic effects on uninfected cells", "setting": "[2]; 20 μg/ml", "result": "without any toxic effects on the uninfected cells being detected"},
      {"measurement": "toxic effects / cell mortality", "setting": "[2]; 40 μg/ml", "result": "toxic effects were observed with an increase in cell mortality"},
      {"measurement": "morphological alterations of the cells", "setting": "[2]; 10-20 μg/ml", "result": "no morphological alterations of the cells were observed"},
      {"measurement": "cell number", "setting": "[2]; 10-20 μg/ml, confluent monolayer, uninfected", "result": "a slight reduction in cell number was observed"},
      {"measurement": "expression of early nucleocapside proteins (NP and P)", "setting": "[3]", "result": "inhibited, though to a lesser extent than that of the late proteins"},
      {"measurement": "synthesis of late haemoagglutinin (H0-H1, H2) and matrix proteins (M)", "setting": "[3]", "result": "almost totally inhibited"},
      {"measurement": "release of messenger RNAs for the late viral proteins (HA and M)", "setting": "[4]; 20 μg/ml, evaluated 8 hours after infection", "result": "causes a delay in the release of messenger RNAs"},
      {"measurement": "synthesis of the mRNAs for HA and M", "setting": "[4]; 20 h after infection", "result": "not affected by treatment with resveratrol"},
      {"measurement": "time of addition after infection at which viral replication was significantly inhibited", "setting": "[5]; 20 μg/ml, added 0, 3, 6 and 9 h after infection, HAU/ml 24 h after infection", "result": "≤ 3", "unit": "h"},
      {"measurement": "duration of treatment needed for inhibition of replication", "setting": "[5]; 20 μg/ml, added immediately after infection, removed at 0, 3, 6, 9 and 24 h", "result": "at least 9 hours"},
      {"measurement": "reduction of viral titre compared to infected and untreated controls", "setting": "[5]; 20 μg/ml, added post-infection, MDCK cells, 0.2 m.o.i.", "result": 87, "unit": "%"},
      {"measurement": "viral replication after 24 h, treatment only during viral adsorption", "setting": "[5]; 20 μg/ml, for one hour at 37° C. during adsorption, then removed", "result": "comparable to the replication obtained in the control cells"},
      {"measurement": "viral replication", "setting": "[5]; 40 μg/ml", "result": "viral replication was completely blocked"},
      {"measurement": "viral replication, dose dependence", "setting": "[5]; added post-infection, 1-40 μg/ml, HAU 24 and 48 h after infection", "result": "inhibited viral replication in a dose-dependent manner"},
      {"measurement": "reversibility of antiviral activity", "setting": "[5]; on discontinuing the treatment", "result": "not reversible on discontinuing the treatment"},
      {"measurement": "viral replication after direct incubation of the virus with the substance", "setting": "[5]; virus incubated with 40 μg/ml for one hour at 37° C., diluted 1:500, then used for infecting cells", "result": "no reduction in viral replication was observed"},
      {"measurement": "localisation of protein NP", "setting": "[6]", "result": "the NP is retained in the nucleus"},
      {"measurement": "protein M expression", "setting": "[6]", "result": "significantly inhibited"},
      {"measurement": "mortality versus untreated animals", "setting": "[7]", "result": "significantly reduced the mortality"},
      {"measurement": "animals that survived the infection", "setting": "[7]; 2 HAU/mouse i.n.", "result": 60, "unit": "%"},
      {"measurement": "GSH levels in infected cells", "setting": "[8]; infected MDCK cells, 24 h after infection", "result": "did not restore the GSH levels reduced by the infection"},
      {"measurement": "intracellular GSH levels compared to untreated cells", "setting": "[8]; uninfected MDCK cells", "result": "produced a reduction in intracellular GSH levels"}
    ]}
  ]
}
